In paper doi:10.1101/2022.07.12.499690v1 (biorxiv, 2022):

Molecular target: PD-L1 (Homo sapiens, UniProt Q9NZQ7)
Assay: bio-affinity ultrafiltration, UPLC-HRMS
Type: binding
Conditions: […] h incubation with compound; denatured PD-L1 as control

Chain of PD-L1 (Q9NZQ7 19-290): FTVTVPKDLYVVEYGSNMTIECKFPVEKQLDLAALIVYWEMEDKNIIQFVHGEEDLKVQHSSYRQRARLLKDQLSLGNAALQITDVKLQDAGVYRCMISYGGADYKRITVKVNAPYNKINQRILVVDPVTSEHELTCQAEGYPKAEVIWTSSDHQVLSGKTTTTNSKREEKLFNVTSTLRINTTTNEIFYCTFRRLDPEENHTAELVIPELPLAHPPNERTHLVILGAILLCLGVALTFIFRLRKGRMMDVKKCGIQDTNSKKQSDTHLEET

## NCCc1c[nH]c2ccccc12 [tryptamine]
  relative peak area enhancement: 40.98%
